Where two headings read alike, the source gives them in different places. Values belong to the compound of their own block, whether it stands above or below them.
Test: solubility of fluorescent in situants in POE oils, alcohols, AB oil and mineral oil
Details: for solubility in POE oil: two different POE oils
Experimental: We have measured the solubility of several fluorescent and daylight-visible in situants in various POE oils and prepared solutions comprised solely of the POE carrier fluid (i.e., no alcohol in the carrier fluid) and these in situants. An example composition is 30 wt. % N-phenyl-1-naphthylamine and 70 wt. % POE oil. […] For example, a composition was prepared with 30 wt. % N-phenyl-1-naphthylamine, 1 wt. % 7-diethylamino-4-methylcoumarin (coumarin 1) and 69 wt. % POE oil. […] The preferred final composition of the fluorescing or daylight visible in situant in the system oil will be below the solubility limits.

[1] = POE oil or alcohols, qualitative

Compound: NC(=O)c1nc2ccc(O)cc2s1 [2-carbamoyl-6-hydroxybenzothiazole]
- soluble in POE oil or alcohols: soluble

Compound: Oc1ccc2nc(-c3nc4ccccc4s3)sc2c1 [2′-(2-benzothiazolyl)-6′-hydroxybenzothiazole]
- soluble in POE oil or alcohols: soluble

Compound: c1ccc(N=Nc2ccc(Nc3ccccc3)cc2)cc1 [4-(phenylazo)-diphenylamine]
- soluble in POE oil or alcohols: soluble

Compound: c1ccc(Nc2cccc3ccccc23)cc1 [N-phenyl-1-naphthylamine]
- solubility in AB oil (AB oil): about 10 weight percent
- solubility in alcohols: 20-30%
- solubility in mineral oil (mineral oil): ~3 weight percent
- solubility in POE oil: 20-30 % by wt.

Compound: c1ccc(Nc2ccc3ccccc3c2)cc1 [N-phenyl-2-naphthylamine]
- soluble in POE oil or alcohols [1]: soluble
- solubility in alcohols: 1-6%
- solubility in POE oil: about 5 % by wt.

Compound: O=C1c2cccc(O)c2C(=O)c2cccc(O)c21 [anthrarufin]
- soluble in POE oil or alcohols: soluble

Compound: c1ccc(Nc2ccccc2)cc1 [diphenylamine]
- soluble in POE oil or alcohols: soluble

Compound: c1ccc2c(c1)Nc1ccccc1S2 [phenothiazine]
- soluble in POE oil or alcohols [1]: soluble

Next, values leading:

- soluble in POE oil or alcohols: soluble
Compound: O=C1c2ccccc2C(=O)c2c(O)c(O)cc(O)c21 [purpurin]

- soluble in POE oil or alcohols: soluble
Compound: O=C1c2ccc(O)c(O)c2C(=O)c2c(O)ccc(O)c21 [quinalizarin]

- soluble in POE oil or alcohols: soluble
Compound: Cc1ccc2nc(-c3ccc(N=NNc4ccc(-c5nc6ccc(C)c(S(=O)(=O)[O-])c6s5)cc4)cc3)sc2c1S(=O)(=O)[O-].[Na+].[Na+] [thiazole yellow G]

- soluble in POE oil or alcohols: soluble
Compound: primuline

— patent publication US20020007663A1, “Method of introducing an in situant into a vapor compression system, especially useful for leak detection, as well as an apparatus for leak detection and a composition useful for leak detection” (Mainstream Engineering Corporation, priority 1997, published 2002)
